# According to patent publication US20240041042A1, “1-(PYRIDYL)-5-AZINYLPYRAZOLE DERIVATIVES, AND THEIR USE FOR CONTROL OF UNDESIRED PLANT GROWTH” (Bayer Aktiengesellschaft, priority 2020, published 2024):
# Read-outs that look alike come from different tables or passages of the source.
# How the values were obtained:
# Format in all cases: in vivo
# [1] = tested on: Viola tricolor (VIOTR); experiment: Pre-emergence herbicidal action against VIOTR
# Description: (§1) Seeds of monocotyledonous and dicotyledonous weed plants and crop plants are placed in plastic or organic planting pots and covered with soil. The compounds of the invention, formulated in the form of wettable powders (WP) or as emulsion concentrates (EC), are then applied to the surface of the covering soil as aqueous suspension or emulsion with addition of 0.5% additive at a water application rate equivalent to 600 l/ha. After the treatment, the pots are placed in a greenhouse and kept under good growth conditions for the trial plants. After about 3 weeks, the effect of the preparations is scored visually in comparison with untreated controls as percentages. For example, 100% activity=the plants have died, 0% activity=like control plants.
# (§2) Tables A1 to A13 below show the effects of selected compounds of the general formula (I) on various harmful plants and at an application rate corresponding to 320 g/ha or lower, which were obtained by the experimental procedure mentioned above. The appendices “a”, “b” and “c” give differentiation by dosage used with otherwise the same harmful plants tested.
# [2] = tested on: Echinochloa crus-galli (ECHCG); experiment: Post-emergence herbicidal action against ECHCG
# Procedure: (§3) Seeds of monocotyledonous and dicotyledonous weeds and crop plants are placed in sandy loam in plastic or organic planting pots, covered with soil and cultivated in a greenhouse under controlled growth conditions. 2 to 3 weeks after sowing, the test plants are treated at the one-leaf stage. The compounds of the invention, formulated in the form of wettable powders (WP) or as emulsion concentrates (EC), are then sprayed onto the green parts of the plants as aqueous suspension or emulsion with addition of 0.5% additive at a water application rate of 600 l/ha (converted). After the test plants have been kept in the greenhouse under optimum growth conditions for about 3 weeks, the activity of the preparations is rated visually in comparison to untreated controls. For example, 100% activity=the plants have died, 0% activity=like control plants.
# (§4) Tables B1 to B13 below show the effects of selected compounds of the general formula (I) according to Table 1 on various harmful plants and at an application rate corresponding to 320 g/ha or lower, which were obtained by the experimental procedure mentioned above. The appendices “a”, “b” and “c” give differentiation by dosage used with otherwise the same harmful plants tested.
# [3] = tested on: Polygonum convolvulus (POLCO); experiment: Pre-emergence herbicidal action against POLCO
# Description: as §1, §2
# [4] = tested on: Zea mays (ZEAMX); details: crop plant compatibility, 80 g/ha, effect vs untreated controls
# Procedure: as §3
# (§5) The observed effects on selected crop plants are reported here in comparison to the untreated controls (values in %). The appendices “a”, “b” and “c” give differentiation by dosage used with otherwise the same crop plants tested.
# [5] = tested on: Oryza sativa (ORYSA); details: crop plant compatibility, effect in comparison to untreated controls
# Procedure: as §3, §5
# [6] = tested on: Amaranthus retroflexus (AMARE); experiment: Post-emergence herbicidal action against AMARE
# Procedure: as §3, §4
# [7] = tested on: Amaranthus retroflexus (AMARE); experiment: Pre-emergence herbicidal action against AMARE; details: visual scoring after about 3 weeks vs untreated controls
# Description: as §1, §2
# [8] = tested on: Avena fatua (AVEFA); experiment: Post-emergence herbicidal action against AVEFA; details: visual rating about 3 weeks after treatment
# Procedure: as §3, §4
# [9] = tested on: Polygonum convolvulus (POLCO); experiment: Post-emergence herbicidal action against POLCO
# Procedure: as §3, §4
# [10] = tested on: Setaria viridis (SETVI); experiment: Pre-emergence herbicidal action against SETVI
# Description: as §1, §2
# [11] = tested on: Setaria viridis (SETVI); experiment: Post-emergence herbicidal action against SETVI; details: dosage 320 g/ha
# Procedure: as §3, §4
# [12] = tested on: Alopecurus myosuroides (ALOMY); experiment: Post-emergence herbicidal action against ALOMY; details: visual rating about 3 weeks after treatment vs untreated controls (100% = plants have died, 0% = like control plants)
# Procedure: as §3, §4
# [13] = tested on: Pharbitis purpurea (PHBPU); experiment: Post-emergence herbicidal action against PHBPU
# Procedure: as §3, §4
# [14] = tested on: Lolium rigidum (LOLRI); experiment: Pre-emergence herbicidal action against LOLRI
# Description: as §1, §2
# [15] = tested on: Verconica persica (VERPE); experiment: Post-emergence herbicidal action against VERPE; details: 320 g/ha, VERPE
# Procedure: as §3, §4
# [16] = tested on: Avena fatua (AVEFA); experiment: Pre-emergence herbicidal action against AVEFA; details: 320 g/ha, visual scoring after about 3 weeks vs untreated controls
# Description: as §1, §2
# [17] = tested on: Pharbitis purpurea (PHBPU); experiment: Pre-emergence herbicidal action against PHBPU; details: dosage 320 g/ha
# Description: as §1, §2
# [18] = tested on: Echinochloa crus-galli (ECHCG); experiment: Pre-emergence herbicidal action against ECHCG; details: dosage 320 g/ha
# Description: as §1, §2
# [19] = tested on: Verconica persica (VERPE); experiment: Pre-emergence herbicidal action against VERPE; details: dosage 320 g/ha
# Description: as §1, §2
# [20] = tested on: Alopecurus myosuroides (ALOMY); experiment: Pre-emergence herbicidal action against ALOMY; details: scored visually after about 3 weeks, 100% = plants have died
# Description: as §1, §2
# [21] = tested on: Matricaria inodora (MATIN); experiment: Pre-emergence herbicidal action against MATIN; details: dosage 320 g/ha
# Description: as §1, §2
# [22] = tested on: Abutilon theophrasti (ABUTH); experiment: Post-emergence herbicidal action against ABUTH; details: 320 g/ha, visual rating about 3 weeks after treatment vs untreated controls (100% = plants have died, 0% = like control plants)
# Procedure: as §3, §4
# [23] = tested on: Viola tricolor (VIOTR); experiment: Post-emergence herbicidal action against VIOTR
# Procedure: as §3, §4
# [24] = tested on: Lolium rigidum (LOLRI); experiment: Post-emergence herbicidal action against LOLRI
# Procedure: as §3, §4
# [25] = 320 g/ha, visual rating about 3 weeks after treatment
Structure (SMILES),"Pre-emergence action against VIOTR in % ([1]; 320 g/ha, Viola tricolor) [%]",Post-emergence action against ECHCG in % ([2]; dosage 320 g/ha) [%],Pre-emergence action against POLCO in % ([3]; dosage 320 g/ha) [%],Post-emergence action against ZEAMX in % [4] [%],Post-emergence action against ORYSA in % ([5]; 80 g/ha) [%],Post-emergence action against ORYSA in % ([5]; 320 g/ha) [%],"Post-emergence action against AMARE in % [6, 25] [%]",Pre-emergence action against AMARE in % ([7]; 80 g/ha) [%],Pre-emergence action against AMARE in % ([7]; 320 g/ha) [%],Post-emergence action against AVEFA in % ([8]; 80 g/ha) [%],Post-emergence action against AVEFA in % ([8]; 320 g/ha) [%],Post-emergence action against POLCO in % ([9]; dosage 80 g/ha) [%],Post-emergence action against POLCO in % ([9]; dosage 320 g/ha) [%],Pre-emergence action against SETVI in % ([10]; dosage 320 g/ha) [%],Post-emergence action against SETVI in % [11] [%],Post-emergence action against ALOMY in % ([12]; 320 g/ha) [%],Pre-emergence action against LOLRI in % ([14]; dosage 320 g/ha) [%],Post-emergence action against VERPE in % [15] [%],Pre-emergence action against AVEFA in % [16] [%],Pre-emergence action against PHBPU in % [17] [%],also measured
C[C@H](NC(=O)COc1nn(-c2ccccn2)c(-c2cncc(F)c2)c1Br)C(=O)O [Example I-80],90,80,90,20,20,20,80,90,90,80,80,80,80,100,80,90,100,80,90,90,"Post-emergence action against ECHCG in % ([2]; dosage 80 g/ha): 80%; Post-emergence action against AMARE in % ([6]; 80 g/ha, visual rating about 3 weeks after treatment vs untreated controls (100% = plants have died, 0% = like control plants)): 80%; Pre-emergence action against SETVI in % ([10]; dosage 80 g/ha): 90%; Post-emergence action against PHBPU in % ([13]; dosage 80 g/ha): 80%; Post-emergence action against PHBPU in % ([13]; dosage 320 g/ha): 80%; Pre-emergence action against ECHCG in % [18]: 100%; Pre-emergence action against VERPE in % [19]: 90%; Pre-emergence action against ALOMY ([20]; 80 g/ha): 100%; Pre-emergence action against ALOMY ([20]; 320 g/ha): 100%; Pre-emergence action against MATIN in % [21]: 90%"
COC(=O)C(C)NC(=O)[C@@H](C)Oc1nn(-c2ccccn2)c(-c2ccc(F)nc2)c1Cl (some centres unmarked) [Example I-358],100,90,90,0,0,0,90,80,100,90,90,90,90,100,90,90,100,80,80,80,Pre-emergence action against VIOTR in % ([1]; dosage 80 g/ha): 80%; Pre-emergence action against POLCO in % ([3]; dosage 80 g/ha): 80%; Post-emergence action against ABUTH in % [22]: 80%; Post-emergence action against ALOMY in % ([12]; 80 g/ha): 90%; Pre-emergence action against LOLRI in % ([14]; dosage 80 g/ha): 100%; Post-emergence action against VIOTR in % ([23]; 80 g/ha): 90%; Post-emergence action against VIOTR in % ([23]; 320 g/ha): 90%; Post-emergence action against LOLRI in % ([24]; dosage 80 g/ha): 90%; Post-emergence action against LOLRI in % ([24]; dosage 320 g/ha): 90%; Pre-emergence action against ECHCG in % [18]: 100%; Pre-emergence action against ALOMY ([20]; 80 g/ha): 80%; Pre-emergence action against ALOMY ([20]; 320 g/ha): 100%
